Source: patent US11331327B2, “Antibacterial use of halogenated salicylanilides” (UNION therapeutics A/S, priority 2014, dated 2022)
Values after ≈ are worked out from the molar mass of the structure shown. Where two headings read alike, the source gives them in different places.

System: S. aureus clinical isolates and S. aureus ATCC 29213
Test: MIC assay according to CLSI criteria, Example 2, S. aureus strains
Format: cell-based, Staphylococcus aureus
Conditions: Staphylococcus aureus, read-out: MIC
Protocol: Strains were conserved in Luria Bertani (LB) Broth (S. aureus) or Brain Heart Infusion (BHI) (S. pyogenes) supplemented with glycerol 15% (v/v) at −80° C., and reactivated by isolation on LB (S. aureus) or BHI (S. pyogenes) agar plates. Strains were cultivated in Mueller Hinton (MH) Broth-cation adjusted (S. aureus) or BHI (S. pyogenes). All strains were cultivated aerobically (microaerobically for S. pyogenes strains) at 37° C.
Bacterial cultures were stopped in their exponential growth phase and plates were inoculated with the approximate concentration of 5×10^5 cells per well. Plates were incubated at 37° C. for 18 hours (S. aureus) or 24 hours (S. pyogenes).

SMILES: CC(=O)O[C@H]1C[C@@]2(C)[C@@H](C[C@@H](O)[C@H]3[C@@]4(C)CC[C@@H](O)[C@@H](C)[C@@H]4CC[C@@]32C)/C1=C(\CCC=C(C)C)C(=O)O [Fusidic acid]
- MIC (ATCC 29213 / MRSA, strain MRSA 15): > 16 µg/mL
- MIC (ATCC 29213 / MRSA, strain MRSA 16): 0.25 µg/mL (≈ 0.484 µM)
- MIC (ATCC 29213 / MRSA, strain MRSA 17): 4 µg/mL (≈ 7.74 µM)
- MIC (ATCC 29213 / MRSA, strain MRSA 18): 0.25 µg/mL (≈ 0.484 µM)
- MIC (ATCC 29213 / MRSA, strain MRSA 19): 0.125 µg/mL (≈ 0.242 µM)
- MIC (ATCC 29213 / MRSA, strain MRSA 20): 0.125 µg/mL (≈ 0.242 µM)
- MIC (ATCC 29213 / MRSA, strain MRSA 21): 0.125 µg/mL (≈ 0.242 µM)
- MIC (ATCC 29213 / MRSA, strain MRSA 22): > 16 µg/mL
- MIC (ATCC 29213 / MRSA, strain MRSA 23): 0.25 µg/mL (≈ 0.484 µM)
- MIC (ATCC 29213 / MRSA, strain MRSA 24): 0.25 µg/mL (≈ 0.484 µM)
- MIC (ATCC 29213 / MRSA, strain MRSA 25): 16 µg/mL (≈ 31 µM)
- MIC (ATCC 29213 / MRSA, strain MRSA 26): 0.5 µg/mL (≈ 0.968 µM)
- MIC (ATCC 29213 / MRSA, strain MRSA 27): 0.25 µg/mL (≈ 0.484 µM)
- MIC (ATCC 29213 / MRSA, strain MRSA 27b): 8 µg/mL (≈ 15.5 µM)
- MIC (ATCC 29213 / MRSA, strain MRSA 28): 0.06 µg/mL (≈ 0.116 µM)
- MIC (ATCC 29213 / MRSA, strain MRSA 29): 4 µg/mL (≈ 7.74 µM)
- MIC (ATCC 29213 / MRSA, strain MRSA 30): 0.125 µg/mL (≈ 0.242 µM)
- MIC (ATCC 29213 / MRSA, strain MRSA 31): 0.25 µg/mL (≈ 0.484 µM)
- MIC (ATCC 29213 / MRSA, strain MRSA 32): 0.5 µg/mL (≈ 0.968 µM)
- MIC (ATCC 29213 / MRSA, strain MRSA 33): 0.5 µg/mL (≈ 0.968 µM)
- MIC (ATCC 29213 / MRSA, strain MRSA 34): 0.25 µg/mL (≈ 0.484 µM)
- MIC (ATCC 29213 / MRSA, strain MRSA 35): 16 µg/mL (≈ 31 µM)
- MIC (ATCC 29213 / MRSA, strain MRSA 36): 8 µg/mL (≈ 15.5 µM)
- MIC (ATCC 29213 / MRSA, strain MRSA 37): 0.5 µg/mL (≈ 0.968 µM)
- MIC (ATCC 29213 / MRSA, strain MRSA 38): 8 µg/mL (≈ 15.5 µM)
- MIC (ATCC 29213 / MRSA, strain MRSA 39): 8 µg/mL (≈ 15.5 µM)
- MIC (ATCC 29213 / MRSA, strain MRSA 40): 0.125 µg/mL (≈ 0.242 µM)
- MIC (ATCC 29213 / MRSA, strain MRSA 41): > 16 µg/mL
- MIC (ATCC 29213 / MRSA, strain MRSA 42): 0.25 µg/mL (≈ 0.484 µM)
- MIC (ATCC 29213 / MRSA, strain MRSA 43): 0.125 µg/mL (≈ 0.242 µM)
- MIC (ATCC 29213 / MRSA, strain MRSA 44): 4 µg/mL (≈ 7.74 µM)
- MIC (ATCC 29213 / MRSA, strain MRSA 45): 0.06 µg/mL (≈ 0.116 µM)
- MIC (ATCC 29213 / MRSA, strain MRSA 46): 0.06 µg/mL (≈ 0.116 µM)
- MIC (ATCC 29213 / MRSA, strain MRSA 47): 0.06 µg/mL (≈ 0.116 µM)
- MIC (ATCC 29213 / MRSA, strain MRSA 48): 2 µg/mL (≈ 3.87 µM)
- MIC (ATCC 29213 / MRSA, strain MRSA 49): 0.25 µg/mL (≈ 0.484 µM)
- MIC (ATCC 29213 / MRSA, strain MRSA 50): 0.03 µg/mL (≈ 0.0581 µM)
- MIC (ATCC 29213 / MRSA, strain MRSA 51): 0.13 µg/mL (≈ 0.252 µM)
- MIC (ATCC 29213 / MRSA, strain MRSA 52): 0.06 µg/mL (≈ 0.116 µM)
- MIC (ATCC 29213 / MRSA, strain MRSA 53): 0.25 µg/mL (≈ 0.484 µM)
- MIC (ATCC 29213 / MRSA, strain MRSA 54): 0.125 µg/mL (≈ 0.242 µM)
- MIC (ATCC 29213 / MRSA, strain MRSA 55): 4 µg/mL (≈ 7.74 µM)
- MIC (ATCC 29213 / MRSA, strain MRSA 56): 0.06 µg/mL (≈ 0.116 µM)
- MIC (ATCC 29213 / MRSA, strain MRSA 57): 0.125 µg/mL (≈ 0.242 µM)
- MIC (ATCC 29213 / MRSA, strain MRSA 58): 4 µg/mL (≈ 7.74 µM)
- MIC (ATCC 29213 / MRSA, strain MRSA 59): 0.06 µg/mL (≈ 0.116 µM)
- MIC (ATCC 29213 / MRSA, strain MRSA 60): 8 µg/mL (≈ 15.5 µM)
- MIC (ATCC 29213 / MRSA, strain MRSA 61): 0.06 µg/mL (≈ 0.116 µM)
- MIC (ATCC 29213 / MRSA, strain MRSA 62): 0.06 µg/mL (≈ 0.116 µM)
- MIC (ATCC 29213 / MRSA, strain MRSA 63): 0.125 µg/mL (≈ 0.242 µM)
- MIC (ATCC 29213 / MRSA, strain MRSA 64): 0.25 µg/mL (≈ 0.484 µM)
- MIC (ATCC 29213 / MRSA, strain MRSA 65): 0.06 µg/mL (≈ 0.116 µM)
- MIC (ATCC 29213 / MRSA, strain MRSA 66): 0.06 µg/mL (≈ 0.116 µM)
- MIC (ATCC 29213 / MRSA, strain MRSA 67): 0.25 µg/mL (≈ 0.484 µM)
- MIC (ATCC 29213 / MRSA, strain MRSA 68): 0.125 µg/mL (≈ 0.242 µM)
- MIC (ATCC 29213 / MRSA, strain MRSA 69): 4 µg/mL (≈ 7.74 µM)
- MIC (ATCC 29213 / MRSA, strain MRSA 70): 8 µg/mL (≈ 15.5 µM)
- MIC (ATCC 29213 / MRSA, strain MRSA 71): 0.06 µg/mL (≈ 0.116 µM)
- MIC (ATCC 29213 / MRSA, strain MRSA 72): 16 µg/mL (≈ 31 µM)
- MIC (ATCC 29213 / MRSA, strain MRSA 73): 0.25 µg/mL (≈ 0.484 µM)
- MIC (ATCC 29213 / MRSA, strain MRSA 74): 0.25 µg/mL (≈ 0.484 µM)
- MIC (ATCC 29213 / MRSA, strain MRSA 75): 0.5 µg/mL (≈ 0.968 µM)
- MIC (ATCC 29213 / MRSA, strain MRSA 76): 0.25 µg/mL (≈ 0.484 µM)
- MIC (ATCC 29213 / MRSA, strain MRSA 77): 16 µg/mL (≈ 31 µM)
- MIC (ATCC 29213 / MRSA, strain MRSA 78): 0.125 µg/mL (≈ 0.242 µM)
- MIC (ATCC 29213 / MRSA, strain MRSA 79): 0.5 µg/mL (≈ 0.968 µM)
- MIC (ATCC 29213 / MRSA, strain MRSA 80): 0.125 µg/mL (≈ 0.242 µM)
- MIC (ATCC 29213 / MRSA, strain MRSA 81): 0.25 µg/mL (≈ 0.484 µM)
- MIC (ATCC 29213 / MRSA, strain MRSA 82): 8 µg/mL (≈ 15.5 µM)
- MIC (ATCC 29213 / MRSA, strain MRSA 83): 0.06 µg/mL (≈ 0.116 µM)
- MIC (ATCC 29213 / MRSA, strain MRSA 84): 8 µg/mL (≈ 15.5 µM)
- MIC (ATCC 29213 / MRSA, strain MRSA 85): 4 µg/mL (≈ 7.74 µM)
- MIC (ATCC 29213 / MRSA, strain MRSA 86): > 16 µg/mL
- MIC (ATCC 29213 / MRSA, strain MRSA 87): 0.125 µg/mL (≈ 0.242 µM)
- MIC (ATCC 29213 / MRSA, strain MRSA 88): 0.06 µg/mL (≈ 0.116 µM)
- MIC (ATCC 29213 / MRSA, strain MRSA 89): 0.06 µg/mL (≈ 0.116 µM)
- MIC (ATCC 29213 / MRSA, strain MRSA 90): 16 µg/mL (≈ 31 µM)
- MIC (ATCC 29213 / MRSA, strain MRSA 91): 0.25 µg/mL (≈ 0.484 µM)
- MIC (ATCC 29213 / MRSA, strain MRSA 92): 8 µg/mL (≈ 15.5 µM)
- MIC (ATCC 29213 / MRSA, strain MRSA 93): 0.02 µg/mL (≈ 0.0387 µM)
- MIC (ATCC 29213 / MRSA, strain MRSA 94): 0.125 µg/mL (≈ 0.242 µM)
- MIC (ATCC 29213 / MRSA, strain MRSA 95): 8 µg/mL (≈ 15.5 µM)
- MIC (ATCC 29213 / MRSA, strain MRSA 96): 0.125 µg/mL (≈ 0.242 µM)
- MIC (ATCC 29213 / MRSA, strain MRSA 97): 8 µg/mL (≈ 15.5 µM)
- MIC (ATCC 29213 / MRSA, strain MRSA 98): 0.06 µg/mL (≈ 0.116 µM)
- MIC (ATCC 29213 / MRSA, strain MRSA 99): 0.125 µg/mL (≈ 0.242 µM)
- MIC (ATCC 29213 / MRSA, strain MRSA 100): 0.125 µg/mL (≈ 0.242 µM)
- MIC (ATCC 29213 / MRSA, strain MRSA 101): 8 µg/mL (≈ 15.5 µM)
- MIC (ATCC 29213 / MRSA, strain MRSA 102): 0.06 µg/mL (≈ 0.116 µM)
- MIC (ATCC 29213 / MRSA, strain MRSA 103): 8 µg/mL (≈ 15.5 µM)
- MIC (ATCC 29213 / MRSA, strain MRSA 104): 0.25 µg/mL (≈ 0.484 µM)
- MIC (ATCC 29213 / MRSA, strain MRSA 105): 0.125 µg/mL (≈ 0.242 µM)
- MIC (ATCC 29213 / MRSA, strain MRSA 106): 0.125 µg/mL (≈ 0.242 µM)
- MIC (ATCC 29213 / MRSA, strain MRSA 107): 0.25 µg/mL (≈ 0.484 µM)
- MIC (ATCC 29213 / MRSA, strain MRSA 108): 4 µg/mL (≈ 7.74 µM)
- MIC (ATCC 29213 / MRSA, strain MRSA 109): 0.25 µg/mL (≈ 0.484 µM)
- MIC (ATCC 29213 / MRSA, strain MRSA 110): 0.06 µg/mL (≈ 0.116 µM)
- MIC (ATCC 29213 / MRSA, strain MRSA 111): 8 µg/mL (≈ 15.5 µM)
- MIC (ATCC 29213 / MRSA, strain MRSA 112): 0.06 µg/mL (≈ 0.116 µM)
- MIC (ATCC 29213 / MRSA, strain MRSA 113): 0.125 µg/mL (≈ 0.242 µM)
- MIC (ATCC 29213 / MSSA, strain MSSA 01): 4 µg/mL (≈ 7.74 µM)
- MIC (ATCC 29213 / MSSA, strain MSSA 02): 4 µg/mL (≈ 7.74 µM)
- MIC (ATCC 29213 / NEWMAN, strain Newman): 0.25 µg/mL (≈ 0.484 µM)
